The values below come from PMC8232621, “Antimicrobial Activity of a Library of Thioxanthones and Their Potential as Efflux Pump Inhibitors” (Pharmaceuticals, 2021).

The subject of one experiment is the used strains. Nature of the experiment: Antibacterial activity (MIC), strains not specified. It is filed as cell-based. The note with it: concentrations tested; results not shown. As for the experimental part: The minimum inhibitory concentration (MIC) for each compound was determined by broth microdilution method in a 96-well plate according to the Clinical and Laboratory Standard Institute (CLSI) guidelines. The medium used was MHB II. […] DMSO was used in subinhibitory concentrations (1% v/v). The MIC was determined by visual inspection.

Another experiment has as its system E. faecalis B3/101. Nature of the experiment: Synergy with vancomycin (antibiotic MIC in presence of compound). It is filed as cell-based, Enterococcus faecalis. An excerpt: The referred library of thioxanthones was initially tested for their antimicrobial activity against six bacterial strains: the Gram-negative Escherichia coli ATCC 25922, Pseudomonas aeruginosa ATCC 27853 and Salmonella enterica serovar Typhimurium SL1344 (SE03), with the acrA gene deleted, and the Gram-positive Staphylococcus aureus ATCC 29213, Enterococcus faecalis ATCC 29212 and the methicillin and ofloxacin-resistant clinical isolate S. aureus 272123. For the synergy assay, two clinically relevant isolates were used: the extended-spectrum β-lactamase (ESBL)-producing E. coli SA/2 [23] and the vancomycin-resistant E. faecalis (VRE) B3/101 [23]. The antibiotics used were cefotaxime (CTX) and vancomycin (VAN), respectively.
The combined effect of the compounds and clinically relevant antimicrobial drugs was evaluated by determining the antibiotic’s MIC in the presence of each compound. […] The antibiotic tested was serially diluted, whereas the concentration of each compound was kept fixed. In the case of compound 12, the concentration used was 8 µg/mL. For all other compounds, the concentration used was 64 µg/mL. Antibiotic MICs were determined as described above.

Several values for one entry are separate records, joined by “and”; a condition that tells them apart may be missing. Equal entries are not always repeated.

Consider `NS(=O)(=O)c1ccc(C(=O)O)cc1` [4-sulfamoylbenzoic acid], for which the MIC entry in the experiment with the used strains was “did not display an observable MIC”. As for `CN[C@H](CC(C)C)C(=O)N[C@H]1C(=O)N[C@@H](CC(N)=O)C(=O)N[C@H]2C(=O)N[C@H]3C(=O)N[C@H](C(=O)N[C@H](C(=O)O)c4cc(O)cc(O)c4-c4cc3ccc4O)[C@H](O)c3ccc(c(Cl)c3)Oc3cc2cc(c3O[C@@H]2O[C@H](CO)[C@@H](O)[C@H](O)[C@H]2O[C@H]2C[C@](C)(N)[C@H](O)[C@H](C)O2)Oc2ccc(cc2Cl)[C@H]1O` [VAN, vancomycin], the “VAN MIC (antibiotic alone)” value in the experiment on E. faecalis B3/101 was 707 µM and 1024 µg/mL.
